From ChEMBL document CHEMBL1201862, “PubChem BioAssay data set” (2004)
Calls of active or inactive are those of the source.

How the values were obtained:
[1] = target: G-protein coupled receptor 35 (Homo sapiens, UniProt Q9HC97); test: inhibition of zaprinast-stimulated GPR35 beta-arrestin translocation – imaging, U2OS, beta-arrestin-GFP, zaprinast agonist, primary screen (AID 2058); type: functional;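 note: antagonist potency meaning inhibition of agonist-induced arrestin redistribution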
Estrogen receptor = target: T1, Estrogen receptor (Homo sapiens, UniProt P03372);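 note: potency for inhibiting coactivator peptide recruitment to the receptor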
T1 sequence (P03372 whole entry): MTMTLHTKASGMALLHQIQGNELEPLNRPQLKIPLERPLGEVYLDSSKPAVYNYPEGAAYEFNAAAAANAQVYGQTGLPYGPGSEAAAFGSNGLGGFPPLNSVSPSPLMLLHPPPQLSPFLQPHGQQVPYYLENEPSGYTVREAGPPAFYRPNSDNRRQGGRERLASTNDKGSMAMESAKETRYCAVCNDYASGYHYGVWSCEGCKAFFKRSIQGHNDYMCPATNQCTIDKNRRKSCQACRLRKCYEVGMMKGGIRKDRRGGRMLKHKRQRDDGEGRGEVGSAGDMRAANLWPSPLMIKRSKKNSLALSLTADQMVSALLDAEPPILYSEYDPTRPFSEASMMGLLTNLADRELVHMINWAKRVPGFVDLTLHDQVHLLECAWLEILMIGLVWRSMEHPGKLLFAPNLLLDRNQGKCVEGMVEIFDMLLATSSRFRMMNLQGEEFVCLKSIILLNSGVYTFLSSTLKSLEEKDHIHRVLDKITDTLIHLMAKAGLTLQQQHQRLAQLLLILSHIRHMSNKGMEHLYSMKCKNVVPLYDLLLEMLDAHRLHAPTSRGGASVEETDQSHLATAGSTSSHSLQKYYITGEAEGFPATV

Estrogen receptor beta [2] = target: T2, Estrogen receptor beta (Homo sapiens, UniProt Q92731);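 note: recombinant ER-beta bound to coactivator SRC1 peptide in presence of estradiol agonist; inhibitors block coactivator peptide binding and lower the FRET signal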
T2 sequence (Q92731 whole entry): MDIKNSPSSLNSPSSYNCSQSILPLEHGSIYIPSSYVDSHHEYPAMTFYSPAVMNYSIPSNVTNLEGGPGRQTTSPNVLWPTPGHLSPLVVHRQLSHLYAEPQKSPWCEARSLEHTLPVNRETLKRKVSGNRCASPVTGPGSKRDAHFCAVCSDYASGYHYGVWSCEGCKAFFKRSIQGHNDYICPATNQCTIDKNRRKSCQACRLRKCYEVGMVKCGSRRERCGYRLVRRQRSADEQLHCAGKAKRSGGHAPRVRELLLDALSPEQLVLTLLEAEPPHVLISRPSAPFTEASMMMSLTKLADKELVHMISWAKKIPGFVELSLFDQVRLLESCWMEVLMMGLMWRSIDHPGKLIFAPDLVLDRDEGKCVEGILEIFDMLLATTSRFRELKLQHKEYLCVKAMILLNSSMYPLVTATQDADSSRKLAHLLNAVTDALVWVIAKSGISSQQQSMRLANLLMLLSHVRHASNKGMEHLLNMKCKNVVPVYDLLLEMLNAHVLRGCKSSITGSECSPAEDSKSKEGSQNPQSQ

Estrogen receptor beta [3] = target: T2, Estrogen receptor beta; test: blockers of SRC-3 recruitment to ERβ – biochemical, ELISA, streptavidin-HRP readout, orthogonal assay, confirmation (AID 1060)
[4] = target: T3, Alkaline phosphatase, tissue-nonspecific isozyme (Homo sapiens, UniProt P05186)
T3 sequence (P05186 whole entry): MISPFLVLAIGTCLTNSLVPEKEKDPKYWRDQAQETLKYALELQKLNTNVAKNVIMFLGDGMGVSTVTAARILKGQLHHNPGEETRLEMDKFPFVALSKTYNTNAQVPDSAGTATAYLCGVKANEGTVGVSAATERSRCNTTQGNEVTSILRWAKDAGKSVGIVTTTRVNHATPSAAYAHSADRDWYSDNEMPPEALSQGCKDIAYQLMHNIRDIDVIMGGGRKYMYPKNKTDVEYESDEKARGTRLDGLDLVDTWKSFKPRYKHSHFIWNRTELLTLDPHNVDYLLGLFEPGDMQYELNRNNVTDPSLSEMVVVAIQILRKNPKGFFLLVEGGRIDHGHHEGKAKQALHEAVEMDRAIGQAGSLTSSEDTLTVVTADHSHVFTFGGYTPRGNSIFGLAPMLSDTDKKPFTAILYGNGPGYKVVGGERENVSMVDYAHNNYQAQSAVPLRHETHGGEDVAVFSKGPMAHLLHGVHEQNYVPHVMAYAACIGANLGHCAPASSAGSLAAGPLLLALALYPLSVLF

H9c2 = test: cells; type: functional, cell-based; settings: Rattus norvegicus, H9c2, Myocardium;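 note: confirmatory concentration-response retest of ultra-high-throughput screening hits for modulation of myocardial damage; cell death induced by hydrogen peroxide oxidative stress; compound pretreatment for 60 min then peroxide exposure for 2 h; potency is for protecting the cells against peroxide damage rather than for killing them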
INS1 = test: INS-1E survival protection against cytokine death – cell-based, luminescence, retest, dose response (AID 449756); type: functional; settings: Rattus norvegicus;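 note: cell death triggered by IL-1 beta plus TNF-alpha plus IFN-gamma mixture; protective hits raise ATP signal compared with cytokine alone wells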
Cytochrome P450 2C9 = Cytochrome P450 2C9 (Homo sapiens, UniProt P11712)
Sequence of Cytochrome P450 2C9 (P11712 whole entry): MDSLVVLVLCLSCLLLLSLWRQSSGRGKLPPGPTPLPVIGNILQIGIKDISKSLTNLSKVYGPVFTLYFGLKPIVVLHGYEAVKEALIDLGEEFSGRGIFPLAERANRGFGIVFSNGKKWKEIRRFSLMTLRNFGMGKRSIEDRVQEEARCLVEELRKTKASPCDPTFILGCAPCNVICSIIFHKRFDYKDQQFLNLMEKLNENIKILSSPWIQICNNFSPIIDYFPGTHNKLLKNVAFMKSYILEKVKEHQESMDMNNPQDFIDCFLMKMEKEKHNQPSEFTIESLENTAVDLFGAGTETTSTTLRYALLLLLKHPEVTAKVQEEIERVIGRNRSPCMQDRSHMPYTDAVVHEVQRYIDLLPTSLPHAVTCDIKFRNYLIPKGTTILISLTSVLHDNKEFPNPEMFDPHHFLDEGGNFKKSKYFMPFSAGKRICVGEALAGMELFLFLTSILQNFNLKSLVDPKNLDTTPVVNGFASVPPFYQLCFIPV

[5] = target: Alkaline phosphatase, placental type (Homo sapiens, UniProt P05187); test: human placental alkaline phosphatase inhibition – biochemical, luminescence, confirmation (AID 1512); type: functional
Sequence of Alkaline phosphatase, placental type (P05187 whole entry): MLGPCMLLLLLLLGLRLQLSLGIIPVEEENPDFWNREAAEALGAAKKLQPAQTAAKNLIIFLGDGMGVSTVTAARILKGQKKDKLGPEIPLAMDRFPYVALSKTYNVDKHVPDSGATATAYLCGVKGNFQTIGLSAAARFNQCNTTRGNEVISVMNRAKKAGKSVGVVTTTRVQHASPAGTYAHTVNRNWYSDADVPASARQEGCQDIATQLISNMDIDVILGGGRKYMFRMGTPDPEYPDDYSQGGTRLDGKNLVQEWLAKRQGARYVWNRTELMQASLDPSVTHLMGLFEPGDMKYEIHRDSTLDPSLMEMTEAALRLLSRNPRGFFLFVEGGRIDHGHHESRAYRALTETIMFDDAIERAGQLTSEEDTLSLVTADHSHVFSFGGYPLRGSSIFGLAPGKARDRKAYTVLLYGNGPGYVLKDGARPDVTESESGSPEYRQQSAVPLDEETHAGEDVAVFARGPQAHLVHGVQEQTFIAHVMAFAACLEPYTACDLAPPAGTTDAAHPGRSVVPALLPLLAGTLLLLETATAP

[6] = target: T4, Tyrosine-protein phosphatase non-receptor type 7 (Homo sapiens, UniProt P35236); test: SAR analysis of chemical inhibitors of HePTP using a Fluorescent assay - Set 2. [Related pubchem assays (depositor defined):AID1059, AID1077, AID1661, AID2085, AID521]; type: functional
T4 sequence (P35236 whole entry): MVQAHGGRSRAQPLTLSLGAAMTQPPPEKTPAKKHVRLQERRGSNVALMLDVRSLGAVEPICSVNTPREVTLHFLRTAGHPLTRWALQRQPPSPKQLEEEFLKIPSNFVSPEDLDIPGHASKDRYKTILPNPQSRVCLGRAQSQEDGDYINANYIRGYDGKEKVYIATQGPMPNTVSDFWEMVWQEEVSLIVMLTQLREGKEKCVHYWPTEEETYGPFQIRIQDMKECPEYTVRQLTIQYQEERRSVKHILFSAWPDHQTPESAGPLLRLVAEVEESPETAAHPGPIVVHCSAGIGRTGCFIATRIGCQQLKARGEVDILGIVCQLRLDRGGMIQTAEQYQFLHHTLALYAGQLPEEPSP

[7] = Luminescence Cell-Based Dose Response HTS to Identify Activators of Luciferase Translation or Activity in H4 […] Cells. [Related pubchem assays: 1829 (Project Summary), 1814 (Primary HTS)]; type: functional
H4 = test: Luminescence Cell-Based Dose Response HTS to Identify Activators of 5'UTR Stem-Loop Driven Prion Protein mRNA Translation in H4 Neuroglioblastoma Cells. [Related pubchem assays: 1829 (Project Summary), 1814 (Primary HTS)]; type: functional; settings: Homo sapiens
[8] = HGIII-sPLA2 enzyme inhibition potency – biochemical, QFRET, IC50, dose response (AID 743457);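 note: green fluorescence rise as the enzyme cleaves BODIPY PC-A2 in liposomes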
[9] = target: Dual specificity protein phosphatase 3 (Homo sapiens, UniProt P51452); test: SAR VHR1 Fluorescent Assay for In Vitro dose response studies Set 2. [Related pubchem assays (depositor defined):AID1654, AID1661, AID1878]; type: functional
Sequence of Dual specificity protein phosphatase 3 (P51452 whole entry): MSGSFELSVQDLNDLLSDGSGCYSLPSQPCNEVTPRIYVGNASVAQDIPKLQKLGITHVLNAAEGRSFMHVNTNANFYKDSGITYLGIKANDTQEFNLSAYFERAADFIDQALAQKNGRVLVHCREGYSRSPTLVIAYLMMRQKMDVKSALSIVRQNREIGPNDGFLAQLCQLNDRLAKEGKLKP

[10] = Luminescence Cell-Based Dose Confirmation HTS to Identify Activators of 5'UTR Stem-Loop Driven Alpha-Synuclein mRNA Translation in H4 Neuroglioblastoma Cells. [Related pubchem assays: 1829 (Project Summary), 1814 (Primary HTS)]; type: functional
HeLa = test: Cytotoxicity counterscreen assay for transcriptional activators of heat shock protein 70 (Hsp70). [Related pubchem assays: 1203, 1252 ]; type: functional; settings: Homo sapiens;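 note: cells exposed to compound for 16 hours before readout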
[11] = target: Acyl-homoserine lactone acylase PvdQ (Pseudomonas aeruginosa (strain LESB58), UniProt Q9I194); test: PvdQ acylase enzyme activity blockers – biochemical, fluorescence, plate reader and imaging, cherry-picks, dose response (AID 493231)
Sequence of Acyl-homoserine lactone acylase PvdQ (Q9I194 24-193 limits assumed): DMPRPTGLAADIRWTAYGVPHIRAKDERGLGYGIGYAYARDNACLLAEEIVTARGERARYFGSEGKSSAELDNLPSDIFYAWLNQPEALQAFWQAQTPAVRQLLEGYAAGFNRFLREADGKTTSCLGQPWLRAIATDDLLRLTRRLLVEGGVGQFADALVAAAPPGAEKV
Sequence of Acyl-homoserine lactone acylase PvdQ (Q9I194 217-762 limits assumed): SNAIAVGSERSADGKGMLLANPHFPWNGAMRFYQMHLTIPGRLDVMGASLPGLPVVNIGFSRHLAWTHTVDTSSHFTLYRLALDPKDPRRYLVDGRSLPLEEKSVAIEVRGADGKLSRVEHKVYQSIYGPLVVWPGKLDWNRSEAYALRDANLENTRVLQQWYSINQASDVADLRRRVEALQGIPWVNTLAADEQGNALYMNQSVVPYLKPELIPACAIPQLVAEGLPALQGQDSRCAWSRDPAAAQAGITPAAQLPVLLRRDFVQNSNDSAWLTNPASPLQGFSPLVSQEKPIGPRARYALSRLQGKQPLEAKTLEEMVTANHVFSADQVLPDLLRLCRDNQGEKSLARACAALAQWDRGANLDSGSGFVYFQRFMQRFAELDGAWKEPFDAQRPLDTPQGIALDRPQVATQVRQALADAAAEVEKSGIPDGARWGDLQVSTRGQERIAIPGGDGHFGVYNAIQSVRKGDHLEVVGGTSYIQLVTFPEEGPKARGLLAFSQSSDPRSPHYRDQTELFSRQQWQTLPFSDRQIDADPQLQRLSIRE

[12] = blockade of melanocortin 4 receptor signaling – cell-based, plate reader, cherry pick, counter-screen for LGR2 antagonist project, dose response (AID 743444); type: functional;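 note: transfected HEK 293 cells stimulated with alpha-MSH peptide; potency of inhibitors of the alpha-MSH evoked signal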
HEK293 = test: EBV LMP1 TES2 canonical NF-kB signalling blockers – cell-based, HEK293, luciferase, cherry-pick, dose response (AID 588343); type: functional; settings: Homo sapiens
[13] = A549 cell cytotoxicity, dose response, cytotoxicity control, plate reader, cherry-pick, antagonist series (AID 743412); type: functional, cell-based
[14] = toxicity toward HepG2 liver cells – cell-based, plate reader, cherry-pick, antagonist series, cytotoxicity control, dose response (AID 743416); type: functional
[15] = alpha-synuclein stem-loop luciferase translation blockers – H4 neuroglioma cells, luminescence, confirmation (AID 1988); type: functional, cell-based
[16] = target: Lysosomal acid glucosylceramidase (Homo sapiens, UniProt P04062); test: Dose response cell-based high throughput screening assay to identify enhancers of beta-glucosidase activity. [Related pubchem assays: 784 ]; type: functional
Sequence of Lysosomal acid glucosylceramidase (P04062 whole entry): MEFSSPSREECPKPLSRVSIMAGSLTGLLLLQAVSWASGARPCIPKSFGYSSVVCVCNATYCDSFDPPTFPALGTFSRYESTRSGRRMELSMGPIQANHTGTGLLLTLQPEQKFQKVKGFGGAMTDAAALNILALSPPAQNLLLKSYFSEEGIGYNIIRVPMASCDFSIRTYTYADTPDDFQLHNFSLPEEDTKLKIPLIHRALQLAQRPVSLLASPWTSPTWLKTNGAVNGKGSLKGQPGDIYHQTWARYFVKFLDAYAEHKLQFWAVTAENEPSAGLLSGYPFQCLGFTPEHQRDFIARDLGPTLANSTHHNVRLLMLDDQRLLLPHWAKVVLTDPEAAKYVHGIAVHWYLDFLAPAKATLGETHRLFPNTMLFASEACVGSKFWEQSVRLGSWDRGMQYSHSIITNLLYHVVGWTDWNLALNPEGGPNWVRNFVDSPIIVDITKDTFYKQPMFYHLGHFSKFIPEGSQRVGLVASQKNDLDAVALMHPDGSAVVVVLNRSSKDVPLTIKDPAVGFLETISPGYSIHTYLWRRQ

[17] = blockers of bursicon-stimulated LGR2 cAMP reporter – cell-based, HEK293, CRE-luciferase reporter, cherry pick, set 2, dose response (AID 743343); type: functional;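 note: transfected cells were stimulated with diluted bursicon conditioned medium after compound addition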
[18] = viability loss in HEK293 cells – cell-based, plate reader, cherry-picked samples, cytotoxicity control, dose response (AID 743446); type: functional
[19] = Luminescence Cell-Based Dose Response HTS to Identify Inhibitors of 5'UTR Stem-Loop Driven Prion Protein mRNA Translation in H4 Neuroglioblastoma Cells. [Related pubchem assays: 1827 (Project Summary), 1813 (Primary HTS)]; type: functional
[20] = target: FAD-linked sulfhydryl oxidase ALR (Homo sapiens, UniProt P55789); test: ALR-catalysed DTT oxidation blockers – biochemical, H2O2 detection, luminescence, cherry-pick, dose response (AID 493248)
Sequence of FAD-linked sulfhydryl oxidase ALR (P55789 whole entry): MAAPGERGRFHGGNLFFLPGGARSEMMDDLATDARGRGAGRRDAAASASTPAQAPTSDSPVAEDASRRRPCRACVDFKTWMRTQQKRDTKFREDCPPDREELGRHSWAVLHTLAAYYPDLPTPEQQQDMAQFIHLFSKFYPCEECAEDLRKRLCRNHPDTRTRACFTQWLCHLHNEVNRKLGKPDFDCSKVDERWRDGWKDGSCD

Bcl-2-like protein 10 = Bcl-2-like protein 10 (Homo sapiens, UniProt Q9HD36); test: Bcl-B/TR3 peptide binding disruption – biochemical, fluorescence polarization, FITC-TR3 peptide, selectivity assay for Bfl-1 inhibitor project, primary screen (AID 748);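 note: fluorescence polarization from a fluorescein-labelled TR3 peptide binding purified Bcl-B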
Sequence of Bcl-2-like protein 10 (Q9HD36 whole entry): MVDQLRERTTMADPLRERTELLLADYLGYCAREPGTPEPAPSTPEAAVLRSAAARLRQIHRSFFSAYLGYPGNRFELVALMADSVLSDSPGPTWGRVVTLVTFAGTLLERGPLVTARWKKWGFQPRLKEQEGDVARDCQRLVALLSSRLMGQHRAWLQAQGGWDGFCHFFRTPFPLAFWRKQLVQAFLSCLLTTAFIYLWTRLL

[21] = target: T5, Short transient receptor potential channel 4 (Mus musculus, UniProt Q9QUQ5); test: block of DAMGO-driven TRPC4 calcium entry – cell-based, HEK293 TRPC4/mu-opioid, Fluo-4 calcium, dose response (AID 434942); type: functional;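 note: potency of inhibitors blocking the TRPC4 calcium response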
T5 sequence (Q9QUQ5 whole entry): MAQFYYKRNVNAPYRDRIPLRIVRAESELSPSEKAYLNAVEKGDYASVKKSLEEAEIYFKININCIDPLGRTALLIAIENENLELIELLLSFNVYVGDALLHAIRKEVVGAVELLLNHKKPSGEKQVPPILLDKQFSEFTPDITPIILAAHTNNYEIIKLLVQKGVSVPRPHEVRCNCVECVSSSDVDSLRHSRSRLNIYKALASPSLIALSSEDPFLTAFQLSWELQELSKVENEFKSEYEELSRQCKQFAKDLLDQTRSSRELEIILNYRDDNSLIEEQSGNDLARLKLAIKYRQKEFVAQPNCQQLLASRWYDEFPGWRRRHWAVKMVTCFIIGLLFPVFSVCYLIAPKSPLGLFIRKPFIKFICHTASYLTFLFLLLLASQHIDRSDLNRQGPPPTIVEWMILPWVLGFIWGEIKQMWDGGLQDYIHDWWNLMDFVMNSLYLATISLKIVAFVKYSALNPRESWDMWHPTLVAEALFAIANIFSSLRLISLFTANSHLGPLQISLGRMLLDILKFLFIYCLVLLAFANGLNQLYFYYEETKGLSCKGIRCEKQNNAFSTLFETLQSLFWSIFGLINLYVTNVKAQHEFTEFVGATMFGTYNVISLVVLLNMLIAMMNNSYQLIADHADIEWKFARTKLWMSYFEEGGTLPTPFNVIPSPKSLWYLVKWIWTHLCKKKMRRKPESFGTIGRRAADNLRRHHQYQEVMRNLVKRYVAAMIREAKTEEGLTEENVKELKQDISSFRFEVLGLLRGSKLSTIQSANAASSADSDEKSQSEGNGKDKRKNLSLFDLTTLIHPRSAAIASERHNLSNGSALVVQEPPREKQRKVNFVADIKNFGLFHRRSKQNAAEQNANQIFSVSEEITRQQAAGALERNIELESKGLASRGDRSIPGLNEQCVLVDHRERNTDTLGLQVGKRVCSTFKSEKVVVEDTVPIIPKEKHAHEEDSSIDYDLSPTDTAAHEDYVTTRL

Nonstructural protein 1 = Nonstructural protein 1 (Influenza A virus, UniProt Q194T2); type: functional, Influenza A virus (A/California/07/2009(H1N1))
[22] = target: Delta-type opioid receptor (Homo sapiens, UniProt P41143); test: Counterscreen for agonists of heterodimerization of the mu 1 (OPRM1) and delta 1 (OPRD1) opioid receptors: Luminescence-based cell-based high throughput dose response assay to identify agonists of OPRD1 homodimerization. [Related pubchem assays (depositor defined):AID504326, AID504355, AID504692, AID504904, AID504905]; type: functional
Sequence of Delta-type opioid receptor (P41143 whole entry): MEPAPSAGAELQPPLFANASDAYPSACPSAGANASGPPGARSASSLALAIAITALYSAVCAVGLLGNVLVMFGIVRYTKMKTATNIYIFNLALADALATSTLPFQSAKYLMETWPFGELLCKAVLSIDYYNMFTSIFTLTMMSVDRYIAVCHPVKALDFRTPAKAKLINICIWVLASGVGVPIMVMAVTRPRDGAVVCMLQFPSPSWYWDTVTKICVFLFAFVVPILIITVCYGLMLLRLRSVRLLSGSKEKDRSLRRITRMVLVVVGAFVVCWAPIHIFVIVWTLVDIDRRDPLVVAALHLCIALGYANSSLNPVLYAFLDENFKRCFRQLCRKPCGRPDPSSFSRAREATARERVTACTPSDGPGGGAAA

Mu-type opioid receptor = Mu-type opioid receptor (Homo sapiens, UniProt P35372); test: Counterscreen for agonists of heterodimerization of the mu 1 (OPRM1) and delta 1 (OPRD1) opioid receptors: Luminescence-based cell-based high throughput dose response assay to identify agonists of OPRM1 homodimerization.; type: functional;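 note: U2OS cells expressing OPRM1 and beta-arrestin as split beta-galactosidase partners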
Sequence of Mu-type opioid receptor (P35372 whole entry): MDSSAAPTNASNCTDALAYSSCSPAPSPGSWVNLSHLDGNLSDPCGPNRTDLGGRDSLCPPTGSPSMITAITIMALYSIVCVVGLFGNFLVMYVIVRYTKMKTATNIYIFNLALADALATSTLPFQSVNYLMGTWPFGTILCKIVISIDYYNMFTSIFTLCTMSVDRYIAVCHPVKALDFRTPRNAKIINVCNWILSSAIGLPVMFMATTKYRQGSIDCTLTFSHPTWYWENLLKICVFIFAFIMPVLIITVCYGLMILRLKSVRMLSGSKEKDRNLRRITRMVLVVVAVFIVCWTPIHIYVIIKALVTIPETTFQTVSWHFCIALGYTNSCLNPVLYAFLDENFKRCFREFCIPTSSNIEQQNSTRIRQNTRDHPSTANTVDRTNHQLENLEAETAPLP

[23] = target: 5-hydroxytryptamine receptor 5A (Homo sapiens, UniProt P47898); test: Counterscreen for agonists of OPRM1-OPRD1 heterodimerization: luminescence-based cell-based high throughput dose response assay to identify agonists of 5-hydroxytryptamine (serotonin) 5A receptor (HTR5A). [Related pubchem assays (depositor defined):AID504326, AID504355, AID504692, AID504904, AID504905]; type: functional
Sequence of 5-hydroxytryptamine receptor 5A (P47898 whole entry): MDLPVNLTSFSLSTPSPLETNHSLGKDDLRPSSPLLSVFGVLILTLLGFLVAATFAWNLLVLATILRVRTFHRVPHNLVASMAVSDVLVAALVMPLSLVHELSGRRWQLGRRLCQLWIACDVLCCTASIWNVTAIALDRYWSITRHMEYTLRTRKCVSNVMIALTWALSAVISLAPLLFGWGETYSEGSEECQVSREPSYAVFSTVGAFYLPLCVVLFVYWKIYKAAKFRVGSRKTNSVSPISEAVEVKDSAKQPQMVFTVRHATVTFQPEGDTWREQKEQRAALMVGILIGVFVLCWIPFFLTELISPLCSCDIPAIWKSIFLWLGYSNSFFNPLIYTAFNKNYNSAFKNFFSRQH

Sequence of G-protein coupled receptor 35 (Q9HC97 whole entry): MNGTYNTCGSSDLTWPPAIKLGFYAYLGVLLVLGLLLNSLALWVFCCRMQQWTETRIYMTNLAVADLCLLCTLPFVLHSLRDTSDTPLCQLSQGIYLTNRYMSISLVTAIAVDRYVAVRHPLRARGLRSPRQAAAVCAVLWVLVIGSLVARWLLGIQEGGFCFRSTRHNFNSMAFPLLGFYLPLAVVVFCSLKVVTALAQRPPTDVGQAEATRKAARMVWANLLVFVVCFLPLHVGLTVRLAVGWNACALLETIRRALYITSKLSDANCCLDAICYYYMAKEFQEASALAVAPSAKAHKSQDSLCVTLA

CN(C)c1ccc(/C=C2\NC(=S)N(Cc3ccccc3)C2=O)cc1
IC50 [1]: 0.651 µM (active)

COc1ccc(Cl)cc1NC(=O)c1ocnc1C
IC50 (Estrogen receptor): 24.9 µM (active)
IC50 (Estrogen receptor beta [2]): 8.77 µM (active)
IC50 (Estrogen receptor beta [3]): > 109 µM (not active)

O=C(NCc1ccccc1)NC1(C(=O)N2CCN(c3ccccc3)CC2)CCCCC1
EC50 [4]: > 100 µM (not active)

Cc1ccc2c(C)nc(Nc3nc(O)cc(CSc4nc5ccccc5[nH]4)n3)nc2c1
IC50 (H9c2): > 79 µM (inactive)
AC50 (INS1): 61.7 µM (active)
EC50 [4]: 82.2 µM (not active)
AC50 (Cytochrome P450 2C9): 0.1 µM (inconclusive)

Cc1ccc(NC(S)=NNC(=O)c2nn(C)c(C)c2Cl)cc1
IC50 [5]: > 100 µM (inactive)
IC50 [6]: > 100 µM (inactive)
EC50 [7]: 12 µM (active)
EC50 (H4): 10.9 µM (active)
IC50 [8]: > 122 µM (inactive)
IC50 [9]: > 100 µM (inactive)
EC50 [10]: 6.19 µM (active)

O=C1NC(=O)C2(COC3(CCCC3)OC2)S1
CC50 (HeLa): > 99 µM (not active)

COc1ccc(CNCc2cccc(Cl)c2)cc1
AC50 [11]: 6.75 µM (active)

CN(C)c1ccc(-c2nc3ccccc3n2C)cc1
AC50 [12]: 4.64 µM (active)
AC50 (HEK293): 2.11 µM (active)
AC50 [13]: 38.2 µM (active)
AC50 [14]: > 52 µM (inactive)
EC50 [15]: 7.88 µM (active)
EC50 [16]: > 50 µM (not active)
AC50 [17]: 4.7 µM (active)
AC50 [18]: 32.2 µM (active)
EC50 [19]: 12.7 µM (active)
AC50 [20]: 6.13 µM (active)

O=C1CC(=O)N(c2ccc3c(c2)OCO3)C(=O)N1
EC50 [16]: > 50 µM (not active)

COc1ccc(OC)c(C(=S)NCc2ccc(F)c(C(F)(F)F)c2)c1
IC50 [6]: 15.5 µM (active)
IC50 [9]: 60.8 µM (active)

N#CCN(N=Nc1ccccc1)c1ccccc1
AC50 [11]: 9.41 µM (active)

CC(=O)Nc1ccc(S(=O)(=O)NC2=C(N3CCN(Cc4ccccc4)CC3)C(=O)c3ccccc3C2=O)cc1
IC50 (Bcl-2-like protein 10): 77.9 µM (inactive)
EC50 [21]: 1.06 µM (active)
IC50 (Nonstructural protein 1): 21.4 µM (active)
EC50 [22]: > 92.4 µM (inactive)
EC50 (Mu-type opioid receptor): > 92.4 µM (inactive)
EC50 [23]: > 92.4 µM (inactive)
